For orientation: IC50 means the concentration that gives 50% inhibition. The term inhibition denotes the drop in the measured response relative to a control, in per cent.

The results in this text go back to ChEMBL document CHEMBL4842376, “Design, synthesis and biological evaluation of novel hybrids targeting mTOR and HDACs for potential treatment of hepatocellular carcinoma” (Eur J Med Chem, 2021).

The source made the active and inactive calls. No cut-off for these calls is given here.

Data set [1] has as its system HeLa. Nature of the data set: cells. Type of data set: functional, cell-based. As to conditions: Homo sapiens, 72 h.
Description: Antiproliferative activity against human HeLa cells assessed as inhibition of cell growth measured after 72 hrs by MTT assay
Data set [2] relates to SK-HEP1. Briefly: cells. Type of data set: functional, cell-based. As to conditions: Homo sapiens, SK-HEP1, 72 h.
Description: Antiproliferative activity against human SK-HEP1 cells assessed as inhibition of cell growth measured after 72 hrs by MTT assay
The test system of data set [3] is Bel-7402. Briefly: Antiproliferative activity against human Bel-7402 cells assessed as inhibition of cell growth measured after 72 hrs by MTT assay. Type of data set: functional, cell-based. The note with it: Bel-7402, 72 h. In general terms: Tetrazolium assays rely on reduction of a dye to a coloured formazan, in cell work by metabolically active cells.
Data set [4] concerns Hep 3B2. Briefly: cells. The format is functional, cell-based. The note with it: Homo sapiens, Hep3B, 72 h.
Description: Antiproliferative activity against human Hep3B cells assessed as inhibition of cell growth measured after 72 hrs by MTT assay
The target of data set [5] is T1, Serine/threonine-protein kinase mTOR (Homo sapiens, UniProt P42345). Briefly: Inhibition of mTOR (unknown origin) at 1 uM using U-Light-4E-BP1 peptide as a substrate in the presence of ATP incubated for 30 mins by Lance ultra assay relative to control.
Data set [6] concerns the target T2, Protein deacetylase HDAC6 (Homo sapiens) (UniProt Q9UBN7).
T2 sequence (whole entry): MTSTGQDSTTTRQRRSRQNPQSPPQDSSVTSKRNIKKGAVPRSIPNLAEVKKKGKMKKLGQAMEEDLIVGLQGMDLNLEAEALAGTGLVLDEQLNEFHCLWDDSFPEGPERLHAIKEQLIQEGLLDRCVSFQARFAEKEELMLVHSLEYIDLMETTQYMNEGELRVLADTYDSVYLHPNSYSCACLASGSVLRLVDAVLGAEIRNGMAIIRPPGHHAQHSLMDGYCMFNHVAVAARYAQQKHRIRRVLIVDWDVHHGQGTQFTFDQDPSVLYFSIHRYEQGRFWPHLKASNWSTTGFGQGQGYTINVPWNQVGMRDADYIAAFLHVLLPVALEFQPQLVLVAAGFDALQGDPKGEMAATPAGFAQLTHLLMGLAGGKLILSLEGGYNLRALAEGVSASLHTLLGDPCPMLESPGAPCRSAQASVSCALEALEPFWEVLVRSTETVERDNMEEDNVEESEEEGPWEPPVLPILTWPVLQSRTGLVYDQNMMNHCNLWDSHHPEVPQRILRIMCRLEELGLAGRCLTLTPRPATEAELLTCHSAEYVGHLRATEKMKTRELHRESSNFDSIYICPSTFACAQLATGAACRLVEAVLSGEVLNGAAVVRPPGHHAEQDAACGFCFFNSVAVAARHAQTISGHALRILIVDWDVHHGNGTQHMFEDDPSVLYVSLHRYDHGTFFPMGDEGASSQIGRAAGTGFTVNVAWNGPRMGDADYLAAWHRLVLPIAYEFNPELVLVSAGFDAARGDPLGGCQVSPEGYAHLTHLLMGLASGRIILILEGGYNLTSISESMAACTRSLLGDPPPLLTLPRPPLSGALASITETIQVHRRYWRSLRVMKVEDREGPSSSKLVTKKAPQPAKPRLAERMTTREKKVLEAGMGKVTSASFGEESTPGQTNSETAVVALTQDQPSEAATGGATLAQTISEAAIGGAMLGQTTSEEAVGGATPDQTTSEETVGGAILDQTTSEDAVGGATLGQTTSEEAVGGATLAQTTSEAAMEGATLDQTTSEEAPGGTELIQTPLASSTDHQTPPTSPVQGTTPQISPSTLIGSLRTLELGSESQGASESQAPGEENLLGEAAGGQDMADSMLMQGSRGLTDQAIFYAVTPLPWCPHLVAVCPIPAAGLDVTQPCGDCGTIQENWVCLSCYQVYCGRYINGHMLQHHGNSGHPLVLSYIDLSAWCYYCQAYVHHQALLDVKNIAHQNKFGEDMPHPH
Briefly: Inhibition of HDAC6 (unknown origin) at 1 uM using Ac-peptide as a substrate pretreated for 15 mins followed by substrate addition relative to control.

The target in data set [7] is T1, Serine/threonine-protein kinase mTOR. Nature of the data set: Inhibition of mTOR (unknown origin) using U-Light-4E-BP1 peptide as a substrate in the presence of ATP incubated for 30 mins by Lance ultra assay.
The target of data set [8] is Histone deacetylase 1 (Homo sapiens, UniProt Q13547). Briefly: Inhibition of HDAC1 (unknown origin) using Ac-peptide as a substrate pretreated for 15 mins followed by substrate addition.
The target of data set [9] is Histone deacetylase 2 (Homo sapiens, UniProt Q92769).
Data set [10] addresses Histone deacetylase 3 (Homo sapiens, UniProt O15379). Briefly: Inhibition of HDAC3 (unknown origin) using Ac-peptide as a substrate pretreated for 15 mins followed by substrate addition.
For data set [11], the system named is L02. Nature of the data set: cells. As to conditions: Homo sapiens, L02, 72 h. The format is ADME, cell-based.
Description: Cytotoxicity against human L02 cells assessed as reduction in cell viability measured after 72 hrs by MTT assay
Data set [12] has as its target Histone deacetylase (Homo sapiens) (UniProt Q13547+O15379+Q9UBN7+Q92769+Q9UQL6+Q8WUI4+Q9BY41+Q96DB2+P56524+Q9UKV0+Q969S8). Nature of the data set: Inhibition of HDAC in human HepG2 cells assessed as upregulation of histone H3 acetylation at 6 uM measured after 24 hrs by western blot analysis. Type of data set: cell-based. On the technique in general: In western blotting, separated proteins are transferred to a membrane and probed.

Data set [13] has as its system HepG2. Briefly: Induction of cell cycle arrest in human HepG2 cells assessed as accumulation of cells in G0/G1 phase at 3 uM measured after 24 hrs by propidium iodide staining based flow cytometry analysis (reference value: 52.7 to 63.2%). Type of data set: functional. For orientation: Flow cytometry measures light scatter and fluorescence of single cells or particles in a stream.

The subject of data set [14] is HepG2. Nature of the data set: Induction of cell cycle arrest in human HepG2 cells assessed as accumulation of cells in S phase at 3 uM measured after 24 hrs by propidium iodide staining based flow cytometry analysis (reference value: 17 to 26.4%). The format is functional.
The subject of data set [15] is HepG2. Nature of the data set: Induction of cell cycle arrest in human HepG2 cells assessed as accumulation of cells in S phase at 6 uM measured after 24 hrs by propidium iodide staining based flow cytometry analysis (reference value: 17 to 26.4%). Type of data set: functional.
Data set [16] has as its system HepG2. Briefly: Induction of apoptosis in human HepG2 cells assessed as late apoptotic cells at 2.5 uM measured after 24 hrs by Annexin V-FITC/PI staining based flow cytometry analysis (Rvb= […]). The format is functional.
Data set [17] deals with HepG2. Briefly: Induction of apoptosis in human HepG2 cells assessed as necrotic cells at 2.5 uM measured after 24 hrs by Annexin V-FITC/PI staining based flow cytometry analysis (Rvb= 0.082%). The format is functional.
Data set [18] relates to HepG2. Briefly: Induction of apoptosis in human HepG2 cells assessed as late apoptotic cells at 5 uM measured after 24 hrs by Annexin V-FITC/PI staining based flow cytometry analysis (Rvb= […]). Type of data set: functional.
The test system of data set [19] is HepG2. Nature of the data set: Induction of apoptosis in human HepG2 cells assessed as necrotic cells at 5 uM measured after 24 hrs by Annexin V-FITC/PI staining based flow cytometry analysis (Rvb= 0.082%). Type of data set: functional.
Data set [20] relates to HepG2. Nature of the data set: Induction of apoptosis in human HepG2 cells assessed as early apoptotic cells at 10 uM measured after 24 hrs by Annexin V-FITC/PI staining based flow cytometry analysis (Rvb= 6.15%). Type of data set: functional.
Data set [21] deals with HepG2. Briefly: Induction of apoptosis in human HepG2 cells assessed as late apoptotic cells at 10 uM measured after 24 hrs by Annexin V-FITC/PI staining based flow cytometry analysis (Rvb= […]). Type of data set: functional.
The nature of data set [22]: Metabolic stability in rat liver microsomes assessed as parent compound remaining at 10 ug/ml measured after 1 hr in the presence of NADPH by HPLC analysis. The format is ADME, Microsome. As to conditions: at 10 µg/mL.

Sequence of Histone deacetylase 3 (O15379 whole entry): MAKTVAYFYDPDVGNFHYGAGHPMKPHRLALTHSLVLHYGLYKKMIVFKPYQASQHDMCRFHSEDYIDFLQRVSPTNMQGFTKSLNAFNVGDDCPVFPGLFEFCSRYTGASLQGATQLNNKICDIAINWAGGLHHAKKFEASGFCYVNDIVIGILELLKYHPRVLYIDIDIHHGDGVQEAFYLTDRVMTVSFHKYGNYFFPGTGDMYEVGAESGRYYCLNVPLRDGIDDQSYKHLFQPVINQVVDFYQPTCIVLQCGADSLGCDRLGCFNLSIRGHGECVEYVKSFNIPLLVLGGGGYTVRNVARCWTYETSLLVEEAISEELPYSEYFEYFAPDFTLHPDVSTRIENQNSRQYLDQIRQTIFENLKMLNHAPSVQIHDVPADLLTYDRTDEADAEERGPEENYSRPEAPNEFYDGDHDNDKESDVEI
Sequence of Histone deacetylase 1 (Q13547 whole entry): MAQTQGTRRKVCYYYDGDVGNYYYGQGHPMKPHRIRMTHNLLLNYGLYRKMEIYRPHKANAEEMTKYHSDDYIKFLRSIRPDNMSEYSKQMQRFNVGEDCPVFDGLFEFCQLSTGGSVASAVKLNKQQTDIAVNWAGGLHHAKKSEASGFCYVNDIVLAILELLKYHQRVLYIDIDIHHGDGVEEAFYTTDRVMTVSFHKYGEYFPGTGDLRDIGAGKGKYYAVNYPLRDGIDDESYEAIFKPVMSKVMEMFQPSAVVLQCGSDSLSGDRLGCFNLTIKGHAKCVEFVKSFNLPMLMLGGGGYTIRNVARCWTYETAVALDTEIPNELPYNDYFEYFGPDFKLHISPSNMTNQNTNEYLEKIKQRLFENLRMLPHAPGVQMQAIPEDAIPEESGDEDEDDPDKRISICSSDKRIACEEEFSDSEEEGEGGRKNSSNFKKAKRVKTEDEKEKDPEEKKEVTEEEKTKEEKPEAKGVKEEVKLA
Sequence of Histone deacetylase 2 (Q92769 whole entry): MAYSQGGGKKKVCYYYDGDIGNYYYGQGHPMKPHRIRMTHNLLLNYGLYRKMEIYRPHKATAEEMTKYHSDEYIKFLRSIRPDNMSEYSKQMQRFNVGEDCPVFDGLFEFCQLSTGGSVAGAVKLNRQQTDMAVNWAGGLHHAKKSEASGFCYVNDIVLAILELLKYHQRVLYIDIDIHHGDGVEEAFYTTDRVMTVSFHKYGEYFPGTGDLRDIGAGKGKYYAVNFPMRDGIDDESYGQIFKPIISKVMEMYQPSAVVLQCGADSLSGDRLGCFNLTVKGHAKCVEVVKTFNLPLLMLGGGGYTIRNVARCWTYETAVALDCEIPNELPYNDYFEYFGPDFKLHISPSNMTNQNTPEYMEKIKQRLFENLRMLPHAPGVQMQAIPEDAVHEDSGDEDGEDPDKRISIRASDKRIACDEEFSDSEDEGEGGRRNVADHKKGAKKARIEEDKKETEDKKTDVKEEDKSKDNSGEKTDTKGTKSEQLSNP

For the compound `Nc1nc2cc(-c3nn(CCCCCCC(=O)NO)c4ncnc(N)c34)ccc2o1`, the half-maximal inhibitory concentration (IC50) in data set [1] was 6410 nM; in data set [2] it was 2690 nM; in [3], over 50000 nM; in data set [4] it was 14000 nM; in data set [7] it was 7.67 nM; in data set [8], 3.1 nM. Further, the half-maximal inhibitory concentration (IC50) in [9] is 3.2 nM; in [10], 4.6 nM; in data set [11] it was 24800 nM. For the same compound, the inhibition in [5] and in data set [6] was 99% each time. Also, the inhibition entry in data set [12] is “Active”. The Activity in data set [13] came out at 70.4%; in data set [14] it was 15.2%; in data set [15], 7.78%; in [16] it was 8.06%; in data set [17], 0.15%; in data set [18], 14.5%. Moreover, the Activity is listed as 0.59% in [19], 30.4% in data set [20] and 27.2% in data set [21]. Moreover, in data set [22] (microsomes, 1 h), the Stabilty entry is “Stable”.
On to `Nc1ncnc2c1c(-c1cnc3[nH]ccc3c1)nn2CCCCCCCCC(=O)NO`, for which the IC50 is 7470 nM in data set [1]; 11200 nM in data set [2]; 18900 nM in data set [3]; 8390 nM in data set [4]; 92.3 nM in [7]; 20 nM in data set [8]. In addition, the half-inhibitory concentration (IC50) in [9] turned out to be 24 nM; in data set [10], 34 nM; in [11] it was 35100 nM. Besides, the figures for the inhibition in data set [5] and in [6] were 97.7% and 99.2%, respectively. Also, the inhibition entry in data set [12] is “Active”. Also, the Activity in data set [13] is 64.5%; in data set [14], 16.2%; in data set [15], 11.5%; in data set [16], 12.3%; in [17], 0.56%; in data set [18] it was 10.4%. Further, the Activity in data set [19] is given as 0.15%; in data set [20], 19.7%; in [21] it was 17.8%. For the same compound, in data set [22] (liver microsomes, read-out: Stabilty), the remaining at 1 h, 10 ug/ml came to 55.2%.
